# Measurements from ChEMBL document CHEMBL6103589, “Synthesis and evaluation of novel ebselen derivatives as urease inhibitors for combating Helicobacter pylori infections” (Eur J Med Chem, 2025).
# Activity calls are given as the source filed them. The rule behind the calls is not given here.
# How the values were obtained:
# Helicobacter pylori [1] = test: Protection against Helicobacter pylori ATCC 43504 infected (MOI 400:1) in human GES1 cell injury model assessed as viable cells at 50 uM pre-treated for 2 hrs followed by bacterial infection measured after 6 hrs by Annexin/V-FITC staining based flow cytometry analysis (reference value: 37.61%); type: functional; details: time 8 hrs
# Helicobacter pylori [2] = test: Protection against Helicobacter pylori ATCC 43504 infected (MOI 100:1) in human GES1 cell injury model assessed as viable cells followed by bacterial infection at 25 uM pre-treated for 2 hrs measured after 6 hrs by Annexin/V-FITC staining based flow cytometry analysis (reference value: 68.36%); type: functional; details: time 8 hrs
# Helicobacter pylori [3] = test: Protection against Helicobacter pylori ATCC 43504 infected (MOI 200:1) in human GES1 cell injury model assessed as necrotic cells at 50 uM pre-treated for 2 hrs followed by bacterial infection measured after 6 hrs by Annexin/V-FITC staining based flow cytometry analysis (reference value: 3.92%); type: functional; details: time 8 hrs
# Helicobacter pylori [4] = test: In vivo protection against Helicobacter pylori ATCC 43504 infected in BALB/c mouse gastric mucosa model assessed as appearance of intact sub-mucosa at high dose administered once a day for 2 weeks by HE staining based analysis; type: functional, organism-based
# Helicobacter pylori [5] = test: In vivo protection against Helicobacter pylori ATCC 43504 infected in BALB/c mouse gastric mucosa model assessed as appearance of intact tissue structure at low dose administered once a day for 2 weeks by HE staining based analysis; type: functional, organism-based
# Helicobacter pylori [6] = test: In vivo protection against Helicobacter pylori ATCC 43504 infected in BALB/c mouse gastric mucosa model assessed as effect on hyperplasia at high dose administered once a day for 2 weeks by HE staining based analysis; type: functional, organism-based
# Helicobacter pylori [7] = test: In vivo protection against Helicobacter pylori ATCC 43504 infected in BALB/c mouse gastric mucosa model assessed as effect on pathological lesion at low dose administered once a day for 2 weeks by HE staining based analysis; type: functional, organism-based
# Helicobacter pylori [8] = test: Protection against Helicobacter pylori ATCC 43504 infected (MOI 400:1) in human GES1 cell injury model assessed as late apoptotic cells at 25 uM pre-treated for 2 hrs followed by bacterial infection measured after 6 hrs by Annexin/V-FITC staining based flow cytometry analysis (reference value: 13.62%); type: functional; details: time 8 hrs
# GES1 = test: Induction of DNA damage in human GES1 cells infected (25 to 400:1 MOI) with Helicobacter pylori ATCC 43504 assessed as increase in gammaH2AX levels at 25 to 50 uM by SP8 laser confocal microscopic analysis; type: functional, cell-based; details: dose 25-50 µM
# Helicobacter pylori [9] = test: Protection against Helicobacter pylori ATCC 43504 infected (MOI 300:1) in human GES1 cell injury model assessed as late apoptotic cells at 25 uM pre-treated for 2 hrs followed by bacterial infection measured after 6 hrs by Annexin/V-FITC staining based flow cytometry analysis (reference value: 11.95%); type: functional; details: time 8 hrs
# Helicobacter pylori [10] = test: In vivo protection against Helicobacter pylori ATCC 43504 infected in BALB/c mouse gastric mucosa model assessed as effect on inflammatory cell infiltration at low dose administered once a day for 2 weeks by HE staining based analysis; type: functional, organism-based
# Helicobacter pylori [11] = test: In vivo protection against Helicobacter pylori ATCC 43504 infected in BALB/c mouse gastric mucosa model assessed as appearance of intact lamina propria at high dose administered once a day for 2 weeks by HE staining based analysis; type: functional, organism-based
# Helicobacter pylori [12] = test: Protection against Helicobacter pylori ATCC 43504 infected (MOI 100:1) in human GES1 cell injury model assessed as late apoptotic cells at 25 uM pre-treated for 2 hrs followed by bacterial infection measured after 6 hrs by Annexin/V-FITC staining based flow cytometry analysis (reference value: 4.16%); type: functional; details: time 8 hrs
# [13] = Acute toxicity in BALB/c mouse assessed as pathological abnormality in kidney at 1 g/Kg, po single dose administered for 7 days by HE staining based analysis; type: organism-based; details: in vivo, 1000 mg/kg, 168 h, time 7 day
# Helicobacter pylori [14] = test: Protection against Helicobacter pylori ATCC 43504 infected (MOI 50:1) in human GES1 cell injury model assessed as early apoptotic cells at 25 uM pre-treated for 2 hrs measured after 6 hrs by Annexin/V-FITC staining based flow cytometry analysis (reference value: 13.16 %); type: functional; details: time 8 hrs
# Helicobacter pylori [15] = test: In vivo protection against Helicobacter pylori ATCC 43504 infected in BALB/c mouse gastric mucosa model assessed as effect on inflammatory cell infiltration at 25 mg/kg administered once a day for 2 weeks by HE staining based analysis; type: functional, organism-based
# Helicobacter pylori [16] = test: Protection against Helicobacter pylori ATCC 43504 infected (MOI 300:1) in human GES1 cell injury model assessed as viable cells at 25 uM pre-treated for 2 hrs followed by bacterial infection measured after 6 hrs by Annexin/V-FITC staining based flow cytometry analysis (reference value: 47.43%); type: functional; details: time 8 hrs
# Helicobacter pylori [17] = test: Protection against Helicobacter pylori ATCC 43504 infected (MOI 25:1) in human GES1 cell injury model assessed as necrotic cells at 50 uM pre-treated for 2 hrs measured after 6 hrs by Annexin/V-FITC staining based flow cytometry analysis (reference value: 0.66%); type: functional; details: time 8 hrs
# Helicobacter pylori [18] = test: In vivo protection against Helicobacter pylori ATCC 43504 infected in BALB/c mouse gastric mucosa model assessed as appearance of intact tissue structure at 25 mg/kg administered once a day for 2 weeks by HE staining based analysis; type: functional, organism-based
# Helicobacter pylori [19] = test: Protection against Helicobacter pylori ATCC 43504 infected (MOI 25:1) in human GES1 cell injury model assessed as viable cells at 25 uM pre-treated for 2 hrs measured after 6 hrs by Annexin/V-FITC staining based flow cytometry analysis (reference value: 89.14%); type: functional; details: time 8 hrs
# Helicobacter pylori [20] = test: Protection against Helicobacter pylori ATCC 43504 infected (MOI 300:1) in human GES1 cell injury model assessed as necrotic cells at 25 uM pre-treated for 2 hrs followed by bacterial infection measured after 6 hrs by Annexin/V-FITC staining based flow cytometry analysis (reference value: 6.05%); type: functional; details: time 8 hrs
# Helicobacter pylori [21] = test: Protection against Helicobacter pylori ATCC 43504 infected (MOI 200:1) in human GES1 cell injury model assessed as necrotic cells at 25 uM pre-treated for 2 hrs followed by bacterial infection measured after 6 hrs by Annexin/V-FITC staining based flow cytometry analysis (reference value: 3.92%); type: functional; details: time 8 hrs
# Helicobacter pylori [22] = test: Protection against Helicobacter pylori ATCC 43504 infected (MOI 400:1) in human GES1 cell injury model assessed as necrotic cells at 25 uM pre-treated for 2 hrs followed by bacterial infection measured after 6 hrs by Annexin/V-FITC staining based flow cytometry analysis (reference value: 6.36%); type: functional; details: time 8 hrs
# Helicobacter pylori [23] = test: Protection against Helicobacter pylori ATCC 43504 infected (MOI 50:1) in human GES1 cell injury model assessed as late apoptotic cells at 50 uM pre-treated for 2 hrs followed by bacterial infection measured after 6 hrs by Annexin/V-FITC staining based flow cytometry analysis (reference value: 2.85%); type: functional; details: time 8 hrs
# Helicobacter pylori [24] = test: Protection against Helicobacter pylori ATCC 43504 infected (MOI 200:1) in human GES1 cell injury model assessed as viable cells at 50 uM pre-treated for 2 hrs followed by bacterial infection measured after 6 hrs by Annexin/V-FITC staining based flow cytometry analysis (reference value: 57.87%); type: functional; details: time 8 hrs
# Helicobacter pylori [25] = test: Antibacterial activity against Helicobacter pylori ATCC 43504 assessed as inhibition of bacterial colonies at 8 ug/mL incubated for 24 hrs by crystal violet based staining based analysis relative to control; type: functional; set-up: scale not given: the % may be the effect or the level left; details: dose 8 µg/ml
compound,measurement,setting,value
O=C(Oc1n[se]c2ccccc12)c1cccc(F)c1,Activity,Helicobacter pylori [1],89.4%
same,Activity,Helicobacter pylori [2],91.76%
same,Activity,Helicobacter pylori [3],0.8%
same,Activity,Helicobacter pylori [4],Active
same,Activity,Helicobacter pylori [5],Active
same,Activity,Helicobacter pylori [6],inactive
same,Activity,Helicobacter pylori [7],inactive
same,Activity,Helicobacter pylori [8],0.32%
same,Activity,GES1,Active
same,Activity,Helicobacter pylori [9],0.02%
same,Activity,Helicobacter pylori [10],Active
same,Activity,Helicobacter pylori [11],Active
same,Activity,Helicobacter pylori [12],0.17%
same,Activity,[13],Non-toxic
same,Activity,Helicobacter pylori [14],4.49%
same,Activity,Helicobacter pylori [15],Active
same,Activity,Helicobacter pylori [16],83.86%
same,Activity,Helicobacter pylori [17],0.43%
same,Activity,Helicobacter pylori [18],Active
same,Activity,Helicobacter pylori [19],98.45%
same,Activity,Helicobacter pylori [20],0.31%
same,Activity,Helicobacter pylori [21],0.12%
same,Activity,Helicobacter pylori [22],0.32%
same,Activity,Helicobacter pylori [23],0.02%
same,Activity,Helicobacter pylori [24],94.61%
same,Activity,Helicobacter pylori [25],100%
